In patent US7566453B2, “Methods for treating melanomas” (Chugai Seiyaku Kabushiki Kaisha, priority 1998, dated 2009):

Tested on: KPMM2 cells
Settings: fixed concentration of anti-human IL-6 receptor antibody; 0.1 or 1 ng/ml IL-6 (FIG. 1 to 6)
Description: The effects of anti-human IL-6 receptor antibody on sensitivity of KPMM2 cells to chemotherapeutic agents used for treatment of myeloma such as adriamycin (ADR, manufactured by Kyowa Hakko), vincristine (VCR, manufactured by Sigma Chemical Co.), and melphalan (L-PAM, manufactured by Sigma Chemical Co.) were evaluated.
KPMM2 is a multiple myeloma cell line derived from the ascites of a human patient with myeloma (see Japanese Unexamined Patent Publication (Kokai) No. 7-236475). […] The growth activity of the cell was evaluated by incorporation of ^3H-labeled thymidine (manufactured by Amersham) into the cell.
The KPMM2 cells that had been maintained were washed thoroughly with a fresh medium (RPMI1640 medium supplemented with 20% FBS), and then were adjusted to 4×10^5/ml, which was dispensed in 50 μl aliquots in a 96-well flat-bottomed microtiter plate (manufactured by Falcon). Furthermore, a medium containing a recombinant human IL-6 (Asagoe, Y. et al., Bio/Technology (1988) 6, 806-809), anti-human IL-6 receptor antibody hPM-1 (see the above reference example 1 or International Patent Application WO 92-15759), and the above chemotherapeutic agents or a fresh medium as control were added to make 200 μl in each well.
The plate was incubated at 37° C. for 4 days under the humidified condition in the presence of 5% CO2. At four hours before the end of incubation, 10 μl of ^3H-labeled thymidine solution (100 μCi/ml) was added to each well, and then incubated for more 4 hours. At the end of incubation, the cells were collected onto the glass filter (manufactured by Printed Filtermat A, WALLAC) using a harvester (Micro 96 Harvester, manufactured by SKATRON Instruments). The radioactivity incorporated into the cells was measured by a microbeta (1450 MicroBeta, manufactured by WALLAC).
The activity of growth inhibition on KPMM2 was expressed using the effect by a chemotherapeutic agent alone as the control. Using the incorporation of ^3H-labeled thymidine into the cell for each experimental group in which a each concentration of a chemotherapeutic agent was added as 100, the amount of ^3H-labeled thymidine incorporated into the cell in an experimental group in which anti-human IL-6 receptor antibody was simultaneously added was compared as an index.

Row | SMILES | relationship of growth index with the concentration of chemotherapeutic agent
1 | COc1cccc2c1C(=O)c1c(O)c3c(c(O)c1C2=O)C[C@@](O)(C(=O)CO)C[C@@H]3O[C@H]1C[C@H](N)[C@H](O)[C@H](C)O1 [adriamycin] | almost constant regardless of their concentration
2 | CC[C@]1(O)C[C@H]2CN(CCc3c([nH]c4ccccc34)[C@@](C(=O)OC)(c3cc4c(cc3OC)N(C=O)[C@H]3[C@@](O)(C(=O)OC)[C@H](OC(C)=O)[C@]5(CC)C=CCN6CC[C@]43[C@@H]65)C2)C1 [vincristine] | almost constant regardless of their concentration
